Assay results reported in patent US9085608B2, “Treatment of biofilms” (LYTIX BIOPHARMA AS, priority 2008, dated 2015).
Values after ≈ are worked out from the molar mass of the structure shown. “Also recorded” adds a separate entry of the source. Read-outs that look alike come from different tables or passages of the source.

Experiments:
[1] = tested on: Staphylococcus aureus PIA 9; assay: microbe, parasite or virus in culture
Experimental: (§1) Bacteria were grown overnight at 37° C. in cation adjusted Mueller-Hinton II Broth (MHIIB).
(§2) We determined the MICs of oxacillin, gentamicin, tetracycline, vancomycin and linezolid using E-test (AB Biodisk, Solna, Sweden) and MICs of rifampicin using broth microdilution assay. Breakpoints were interpreted according to EUCAST criteria. […] All 3 SAMPs are tripeptides with two arginine residues providing their cationic moieties (FIG. 1). The lipophilic bulk is provided by a modified tryptophane derivate. […] The molecular weights of the SAMPs are in the range of 700-800 Dalton.

[2] = tested on: Staphylococcus aureus PIA90; assay: microbe, parasite or virus in culture
Experimental: as §1, §2

[3] = tested on: Staphylococcus epidermidis RP62A ATCC 35984; assay: microbe, parasite or virus in culture
Experimental: as §1, §2

[4] = tested on: Staphylococcus epidermidis TUH 08-16; assay: microbe, parasite or virus in culture
Experimental: as §1, §2

[5] = tested on: Staphylococcus haemolyticus TUH 51-03; assay: microbe, parasite or virus in culture
Experimental: as §1, §2

[6] = tested on: Staphylococcus haemolyticus TUH 51-07; assay: microbe, parasite or virus in culture
Experimental: as §1, §2

[7] = tested on: 24 h old biofilm of 6 different staphylococcal strains; assay: Biofilm metabolic activity, Alamar blue reduction; type: cell-based, S. epidermidis, S. haemolyticus, S. aureus; details: 50 mg/L, 24 h treatment; all biofilms except S. aureus PIA 9
Experimental: Biofilm formation was induced in 96-well flat bottom microtitre plates (Nunclon Surface, NUNC, Roskilde, Denmark). First, overnight cultures were diluted 1:100 in MHIIB (S. epidermidis and S. haemolyticus) or tryptic soy broth (TSB) with 5% glucose and 5% NaCl (S. aureus). Two hundred of this bacterial suspension (10^7 cfu/ml) was added to each well and incubated for 24 h at 37° C. After 24 h the wells were carefully washed twice with phosphate-buffered saline (PBS) to remove planktonic bacteria. The washing procedure was evaluated by measuring metabolic activity of the PBS with the Alamar blue method, described in detail below.
The washed biofilms were subjected to treatment with antibiotics or SAMPs at different concentrations. Stock solutions of the tetracycline (Sigma Aldrich), vancomycin (Alpharma) and linezolid (Pfizer) were diluted in MHIIB to 5 mg/L, 50 mg/L and 500 mg/L, and rifampicin (Sigma Aldrich) was diluted in MHIIB to 0.01 mg/L, 0.1 mg/L and 1 mg/L. Trifluoroacetate salts of the SAMPs were dissolved in sterile water and diluted to 5 mg/L, 50 mg/L and 500 mg/L in MHIIB. 200 μl of antibiotics or SAMPs, in different concentrations, were added to each well and incubated for 24 h at 37° C. Positive controls were untreated biofilms only added 200 μl MHIIB. Negative controls were only 200 μl MHIIB, with no bacteria added.
We quantified the metabolic activity of biofilm with a slightly modified method previously described by Pettit et al. in Antimicrob. […] Briefly, the wells were washed twice with PBS. We then added 250 μl MHIIB with 5% Alamar blue (AB; Invitrogen, Carlsbad, Calif., USA) to each well. AB is a redox indicator which both fluoresces and changes colour in response to chemical reduction. The extent of reduction is a reflection of bacterial cell viability. After 1 h incubation at 37° C., absorbance was recorded at 570 and 600 nm using Versamax tuneable microplate reader (Molecular Devices, Sunnyvale, Calif., USA). […] The highest and lowest value of each run was excluded from the analyses, and the remaining 18 values were averaged.
The percent reduction of AB was calculated according to the manufacturer's formula (Invitrogen, Carlsbad, USA). We calculated mean and standard deviations (SD) of all repeated measurements.
We defined two levels of antimicrobial suppression of metabolic activity.

[8] = tested on: S. haemolyticus TUH 51-07 biofilm; assay: Biofilm imaging, LIVE/DEAD staining and confocal laser scanning microscopy; type: cell-based, Staphylococcus haemolyticus; details: 24 h treatment
Experimental: One ml aliquots of MHIIB-diluted overnight culture was used to grow S. haemolyticus TUH 51-07 biofilm on plastic coverslides (Thermanox, cellculture treated on one side, NUNC, Roskilde, Denmark) in 24-well dishes (Falcon 3047, Becton Dickinson, NJ, USA) for 24 h. The coverslides were then washed carefully with PBS, moved to a new plate and treated for 24 h with tetracycline 50 mg/L and 500 mg/L, vancomycin 50 mg/L and 500 mg/L, or Compound A 50 mg/L and 500 mg/L. The coverslides were washed again with […] and stained with a LIVE/DEAD kit (Invitrogen Molecular Probes, Eugene, Oreg., USA) following the manufacturer's instructions. This stain contains SYTO 9 (green fluorescent) and propidium iodide (PI; red fluorescent), both binding to DNA. When used alone, the SYTO 9 generally stains all bacteria in a population; both those with intact and those with damaged membranes. In contrast, PI penetrates only bacteria with damaged membranes, causing a reduction in the SYTO 9 stain green fluorescence when both dyes are present. We examined treated and untreated biofilms with a Leica TCS SP5 (Leica Microsystems CMS Gmbh, Mannheim, Germany) confocal laser scanning microscope (CLSM). Images were obtained using a 63×1.2 NA HCX PL APO water immersion lens. For detection of SYTO9 (green channel), we used the 488 nm line of the argon laser and a detection bandwidth of 495-515 nm. For PI detection (red channel), we used the 561 nm line and a detection bandwidth of 615-660 nm. The two fluorescent-signals were collected sequentially at 400 Hz. Image analyses and export was performed in Leica LAS AF version 1.8.2.

[9] = tested on: six staphylococcal strains (2 S. epidermidis, 2 S. haemolyticus and 2 S. aureus); assay: Susceptibility testing under planktonic growth condition, EUCAST breakpoints; type: cell-based; details: EUCAST criteria
Experimental: The six staphylococcal strains (2 S. epidermidis, 2 S. haemolyticus and 2 S. aureus) used in this study were selected based on their previously known biofilm forming capacity (Table 1).
as §1
We determined the MICs of oxacillin, gentamicin, tetracycline, vancomycin and linezolid using E-test (AB Biodisk, Solna, Sweden) and MICs of rifampicin using broth microdilution assay. Breakpoints were interpreted according to EUCAST criteria. We selected 3 different SAMPs (Compounds A, B and C; Lytix Biopharma, Tromsø, Norway—see FIG. 1) based on previously known antimicrobial activities, and determined their exact MICs with broth microdilution assay. All 3 SAMPs are tripeptides with two arginine residues providing their cationic moieties (FIG. 1). The lipophilic bulk is provided by a modified tryptophane derivate. The difference between the compounds is the size of the C-terminal modification; Compound A has the smallest and Compound B has the largest C-terminal modification (FIG. 1). The molecular weights of the SAMPs are in the range of 700-800 Dalton.

Q: Which results are given for `CCCCCCNC(=O)[C@H](CCCNC(=N)N)NC(=O)[C@H](Cc1c(C(C)(C)C)[nH]c2c(C(C)(C)C)cc(C(C)(C)C)cc12)NC(=O)[C@@H](N)CCCNC(=N)N` [Compound C]?
A: MIC ([1]; PIA 9): 4 µg/mL (≈ 5.21 µM); MIC ([2]; PIA90): 2 µg/mL (≈ 2.6 µM); MIC ([3]; ATCC 35984): 4 µg/mL (≈ 5.21 µM); MIC ([4]; TUH 08-16): 2 µg/mL (≈ 2.6 µM); MIC [5]: 4 µg/mL (≈ 5.21 µM); MIC [6]: 4 µg/mL (≈ 5.21 µM); suppression of metabolic activity (AB reduction) [7]: strong or complete suppression

Q: For `CC(C)NC(=O)[C@H](CCCNC(=N)N)NC(=O)[C@H](Cc1c(C(C)(C)C)[nH]c2c(C(C)(C)C)cc(C(C)(C)C)cc12)NC(=O)[C@@H](N)CCCNC(=N)N` [Compound A], which MIC ([1]; PIA 9) is on record?
A: Its MIC is 8 µg/mL (≈ 11 µM).

Q: And the MIC ([2]; PIA90)?
A: The MIC was 8 µg/mL (≈ 11 µM).

Q: And the MIC ([3]; ATCC 35984)?
A: Its MIC is 8 µg/mL (≈ 11 µM).

Q: What about the MIC ([4]; TUH 08-16) of the same molecule?
A: The MIC was 4 µg/mL (≈ 5.51 µM).

Q: And the MIC [5]?
A: Its MIC is 8 µg/mL (≈ 11 µM).

Q: What about the MIC [6] of the same molecule?
A: The MIC was 8 µg/mL (≈ 11 µM).

Q: What about the “suppression of metabolic activity (AB reduction)” value [7] of the same molecule?
A: Its value is “strong or complete suppression”.

Q: What about the “LIVE/DEAD staining of biofilm cells (CLSM)” value ([8]; 50 mg/L) of the same molecule?
A: The value was “almost all cells are stained red”.

Q: And the “LIVE/DEAD staining of biofilm cells (CLSM)” value ([8]; 500 mg/L)?
A: Its value is “almost all cells are stained red; also recorded: membrane damage of all cells”.

Q: Which MIC ([1]; Staphylococcus aureus, PIA9) does the source give for `CO[C@H]1/C=C/O[C@@]2(C)Oc3c(C)c(O)c4c(O)c(c(/C=N/N5CCN(C)CC5)c(O)c4c3C2=O)NC(=O)/C(C)=C\C=C\[C@H](C)[C@H](O)[C@@H](C)[C@@H](O)[C@@H](C)[C@H](OC(C)=O)[C@@H]1C` [RIF, rifampicin] here?
A: Its MIC is less than 0.016 µg/mL.

Q: What about the MIC ([2]; Staphylococcus aureus, PIA90) of the same molecule?
A: Its MIC is 0.016 µg/mL (≈ 0.0194 µM).

Q: What about the MIC ([3]; Staphylococcus epidermidis, ATCC35984) of the same molecule?
A: Its MIC is less than 0.016 µg/mL.

Q: And the MIC ([4]; Staphylococcus epidermidis, TUH0816)?
A: Its MIC is 0.016 µg/mL (≈ 0.0194 µM).

Q: And the MIC ([5]; Staphylococcus haemolyticus, TUH5103)?
A: The MIC was less than 0.016 µg/mL.

Q: And the MIC ([6]; Staphylococcus haemolyticus, TUH5107)?
A: The MIC was 0.016 µg/mL (≈ 0.0194 µM).

Q: Which MIC ([1]; planktonic, SA PIA 9) does the source give for `Cc1onc(-c2ccccc2)c1C(=O)N[C@@H]1C(=O)N2[C@@H]1SC(C)(C)[C@@H]2C(=O)O` [OXA, oxacillin] here?
A: The MIC was 1 µg/mL (≈ 2.49 µM).

Q: What about the MIC ([2]; planktonic, SA PIA90) of the same molecule?
A: The MIC was 1 µg/mL (≈ 2.49 µM).

Q: What about the MIC ([3]; planktonic, SE RP62A ATCC 35984) of the same molecule?
A: The MIC was 8 µg/mL (≈ 19.9 µM).

Q: And the MIC ([4]; planktonic, SE TUH 08-16)?
A: Its MIC is 16 µg/mL (≈ 39.9 µM).

Q: And the MIC ([5]; planktonic, SH TUH 51-03)?
A: The MIC was greater than 256 µg/mL.

Q: And the MIC ([6]; planktonic, SH TUH 51-07)?
A: Its MIC is greater than 256 µg/mL.

Q: What about the “susceptibility under planktonic growth” value ([9]; the four other staphylococcal strains) of the same molecule?
A: Its value is “resistant”.

Q: What about the “susceptibility under planktonic growth” value ([9]; the two S. aureus strains) of the same molecule?
A: Its value is “susceptible”.
